These compounds were tested against rabbit platelet PDE V (Oryctolagus cuniculus, UniProt G1SX67) (assay: PDE V inhibition, PDE SPA assay kit with [3H]-cGMP). Conditions: not given.
Assay type: biochemical
Procedure: The rabbit platelet PDE V was prepared using the method described by Hidaka et al. (Biochim. Biophys. Acta., 429: 485 - 497, 1976) with minor modification. The plateletrich plasma (PRP) was prepared by centrifugation of freshly obtained heparinized whole blood at 360 g. Platelets were isolated from the PRP by centrifugation at 1,200 g. Platelet homogenates were prepared in the homogenization buffer (50 mM Tris-HCl buffer containing 1 mM MgCl2, pH 7.4) by sonication for 30 s per 1 mL. The homogenized solutions were then centrifuged at 40,000 × g for 2 h at 4 °C. The supernatant was loaded on the DEAE-cellulose column (20 mL bed volume, Sigma) pre-equilibrated with equilibration buffer (50 mM Tris-acetate containing 3.75 mM 2-mercaptoethanol, pH 6.0). The column was then washed with 60 mL of equilibration buffer. The PDE isozymes were eluted using a continuous gradient of 0 to 600 mM sodium acetate in the equilibration buffer (60 mL total volume). The 1.0 mL fractions were collected. A flow rate of 60 mL/h was used throughout the ion-exchange chromatography procedure. PDE activities on cAMP and cGMP were characterized as described below. The characterized fractions were pooled and stored at -80 °C until the inhibition studies.
The cyclic nucleotide PDE V activity was determined using PDE SPA assay kit (Amersham Pharmacia biotech, UK). Each reaction mixture (100 µL total volume) consisted of the column elute containing PDE V (10 µL), [^3H]-cGMP (5 µCi/mL), bovine serum albumin (0. 5 mg/mL), and MgCl2 (5 mM) in Tris-HCl buffer (15 mM, pH 7. 5). The reactions were initiated by the addition of PDE V and the samples were incubated at 30 °C for 30 min, after which the reaction was stopped by the addition of 50 µL of SPA beads. The reaction tube was then settled for 20 min and was counted on the scintillation counter (Tri-carb 1500, Packard, USA). For the inhibition study of PDE V activity, the test compounds were dissolved in dimethyl sulfoxide (DMSO) and was diluted with distilled water. The final concentration of DMSO was less than 0. 2% (v/v).

SMILES | IC50
CCCOc1ccc(S(=O)(=O)N2CCN(CCOC(=O)Cc3ccccc3)CC2)cc1-c1nc2c(CCC)cn(CC)c2c(=O)[nH]1 [Example 24, 5-Ethyl-2-{5-[4-(2-phenylacetoxyethyl)piperazin-1-ylsulfonyl]-2-n-propoxyphenyl}-7-n-propyl-3,5-dihydro-4H-pyrrolo[3,2-d]pyrimidin-4-one] | 8.68 nM

Same assay, conditions: in vitro inhibition of cGMP PDE V; 30 °C, 30 min; read-out: IC50

SMILES | IC50
CCCOc1ccc(S(=O)(=O)N2CCN(CCOC(C)=O)CC2)cc1-c1nc2c(CCC)cn(CC)c2c(=O)[nH]1 [Example 7, 2-{5-[4-(2-Acetoxyethyl)piperazin-1-ylsulfonyl]-2-n-propoxyphenyl}-5-ethyl-7-n-propyl-3,5-dihydro-4H-pyrrolo[3,2-d]pyrimidin-4-one] | 2.84 nM
CCCOc1ccc(S(=O)(=O)N2CCN(CCOC(=O)CC)CC2)cc1-c1nc2c(CCC)cn(CC)c2c(=O)[nH]1 [Example 10, 5-Ethyl-2-{5-[4-(2-propionyloxyethyl)piperazin-1-ylsulfonyl]-2-n-propoxyphenyl}-7-n-propyl-3,5-dihydro-4H-pyrrolo[3,2-d]pyrimidin-4-one] | 5.73 nM
CCCOc1ccc(S(=O)(=O)N2CCN(CCOC(=O)CCC)CC2)cc1-c1nc2c(CCC)cn(CC)c2c(=O)[nH]1 [Example 12, 2-{5-[4-(2-Butyryloxyethyl)piperazin-1-ylsulfonyl]-2-n-propoxyphenyl}-5-ethyl-7-n-propyl-3,5-dihydro-4H-pyrrolo[3,2-d]pyrimidin-4-one] | 8.87 nM
CCCOc1ccc(S(=O)(=O)N2CCN(CCOC(=O)C(C)C)CC2)cc1-c1nc2c(CCC)cn(CC)c2c(=O)[nH]1 [Example 14, 5-Ethyl-2-{5-[4-(2-isobutyryloxyethyl)piperazin-1-ylsulfonyl]-2-n-propoxyphenyl}-7-n-propyl-3,5-dihydro-4H-pyrrolo[3,2-d]pyrimidin-4-one] | 8.8 nM
CCCOc1ccc(S(=O)(=O)N2CCN(CCOC(=O)c3ccccc3)CC2)cc1-c1nc2c(CCC)cn(CC)c2c(=O)[nH]1 [Example 16, 2-{5-[4-(2-Benzoyloxyethyl)piperazin-1-ylsulfonyl]-2-n-propoxyphenyl}-5-ethyl-7-n-propyl-3,5-dihydro-4H-pyrrolo[3,2-d]pyrimidin-4-one] | 14.4 nM
CCCOc1ccc(S(=O)(=O)N2CCN(CCOC(=O)OCC)CC2)cc1-c1nc2c(CCC)cn(CC)c2c(=O)[nH]1 [Example 17, 2-{5-[4-(2-Ethoxycarbonyloxyethyl)piperazin-1-ylsulfonyl]-2-n-propoxyphenyl}-5-ethyl-7-n-propyl-3,5-dihydro-4H-pyrrolo[3,2-d]pyrimidin-4-one] | 7.65 nM
CCCOc1ccc(S(=O)(=O)N2CCN(CCOC(C)=O)CC2)cc1-c1nc2c(CCCF)cn(CC)c2c(=O)[nH]1 [Example 19, 2-{5-[4-(2-Acetoxyethyl)piperazin-1-ylsulfonyl]-2-n-propoxyphenyl}-5-ethyl-7-(3-fluoropropyl)-3,5-dihydro-4H-pyrrolo[3,2-d]pyrimidin-4-one] | 1.48 nM

Reference: patent EP1362858A1, “Pyrrolopyrimidinone derivates, process of preparation and use” (SK Chemicals Co., Ltd., priority 2002, dated 2003)
